The values that follow come from US5527778A, “Method for selective opening of abnormal brain tissue capillaries” (priority 1995, dated 1996).

Structures are written as SMILES. Residues, ends and D or L forms follow the SMILES beside them.

In one data set the test system is brain tumor capillaries. Particulars: intracarotid infusion of LTC4; cited from earlier work.
In data set [1] the test system is RG-2 glioma. Briefly: Regional permeability (unidirectional transfer constant Ki) by quantitative autoradiography after intracarotid infusion. The data set is classed as in vivo, Wistar rats. On the procedure: An experimental brain tumor model was made using female Wistar rats and RG-2 glioma cells. The RG-2 glioma cell line was maintained in a monolayer culture in F12 medium with 10% calf serum. Female Wistar rats, each weighing 150 to 250 gm were anesthetized with intra peritoneal pentobarbital (30 mg/kg). Glial tumors were implanted into the right hemisphere by intracerebral injections of 1×10^5 RG-2 glioma cells in five μl of 1.2% methyl cellulose (F12 medium). One week after tumor implantation, the rats were used for the brain tumor model.
The rats were divided into two groups: a bradykinin group treated with intracarotid infusion of 10 […] of bradykinin or the control group treated with intracarotid infusion of saline. The effect of intracarotid infusion of bradykinin was compared to saline infusions by statistical analysis of the Ki values using ANOVA and Students T-Tests.
(§1) [^14 C] AIB and [^14 C] dextran were used for quantitative autoradiographic examination of regional permeability. One week after tumor implantation, the rats were again anesthetized and a polyethylene (PE-10) catheter was inserted retrograde throughout the external carotid artery to the common carotid artery bifurcation ipsilateral to the tumor. The external carotid artery was then ligated. One femoral artery was cannulated to monitor systemic blood pressure and the other femoral artery was cannulated to withdraw arterial blood. Body temperature was maintained at […] and arterial blood gas levels, blood pressure, hematocrit were monitored. Animals with abnormal physiological parameters were eliminated. After rat preparation, bradykinin (10 μg/kg/min in saline) or saline as control was infused into the right carotid artery at a rate of 53.3 μ/min for 15 minutes. Five minutes after the start of the intracarotid infusion, 100 μCi/Kg of the tracer was injected as an intravenous bolus. A peristaltic withdrawal pump was used to withdraw femoral arterial blood at a constant rate of 0.083 ml/min immediately after injection of tracer for determination of serum radioactivity. Fifteen minutes after the start of intracarotid infusions, the animals were killed by decapitation and the brains were rapidly removed and frozen.
Autoradiography was conducted as follows: the frozen brains were mounted onto pedestals with M-1 embedding matrix, and 20 μm coronal sections were cut into a cryotome. The sections were thawmounted onto cover slips, and autoradiograms were generated by coexposing the sections on Kodak XAR-5 film with tissue-calibrated ^14 C standards for 2 weeks. The sequential section was stained with hematoxylin for correlation of areas of histologically verified tumor with autoradiograms. The regional radioactivities were measured in tumor, brain surrounding the tumor (BST; areas at around 2 mm distance from the border of the tumor), ipsilateral cortex to tumor (ipsi cortex), contralateral cortex (contra cortex), ipsilateral white matter (ipsi WM), contralateral WM (contra WM), ipsilateral basal ganglia (ipsi BGG), and contralateral BGG (contra BGG). Quantitative analysis of the regional radioactivity was performed using a computer (Macintosh II) with a scanner (UMAX UC630) and the software, Image 1.45 (NIH). […]
The frozen brains were mounted onto pedestals with M-1 embedding matrix, and 20 μm coronal sections were cut with a cryotome. The sections were thaw-mounted onto cover slips, and autoradiograms were generated by co-exposing the sections on Kodak XAR-5 film with tissue-calibrated ^14 C standards for 2 weeks. The sequential section was stained with hematoxylin for correlation of areas of histologically verified tumor with autoradiograms. The regional radioactivity was measured in tumor, brain surrounding the tumor (BST; areas within 2 mm distance from the border of the tumor), ipsilateral cortex to tumor, contralateral cortex, ipsilateral white matter (WM), contralateral WM, ipsilateral basal ganglia (BG), and contralateral BG. […]

Data set [2] relates to RG-2 glioma. Description: Blood volume in brain and tumor by graphic method using [14C] dextran. It counts as in vivo, Wistar rats. Particulars: intracarotid bradykinin infusion. Here is the method:
The blood volume for the quantitative examination of permeability was calculated with a graphic method using [^14 C] dextran (MW 70,000). The blood volume in normal brain tissue and tumors were 4.5 and 9.15 μ/g, respectively (FIG. 1). The slopes were the unidirectional transfer constants, the Ki values (μl/g/min), in the two groups. […] The tumor blood volume was almost twice that of the normal brain tissue, but the brain and tumor blood volumes were not altered by intracarotid bradykinin infusion.
RMP-7 (at 1.5 μg/kg) or vehicle (control) was infused into the right carotid artery at a volume rate of 0.8 ml over 15 minutes (i.e. 53 μ/min). In blood volume studies, 100 μCi/kg of [^14 C] dextran was injected as an intravenous bolus at either 5, 10, 14 or 14.5 minutes after the start of the intracarotid infusion to make the circulation time of dextran 10, 5, 1, 0.5 minutes, respectively. […] A peristaltic withdrawal pump was used to withdraw femoral arterial blood at a constant rate of 0.083 ml/min immediately after the injection of the tracer for the determination of serum radioactivity. […]
The blood volume for the quantitative examination of permeability was calculated with a graphic method using [^14 C] dextran. […] Ki was similar in these experiments whether calculated using the graphic method or the method described by Ohno (25) and Ziylan (26).

On the set-up of data set [3]: species or system rats. The note with it: rat, in vivo. Here is the method: At infusion rates greater than 20 μg/kg/min the systemic blood pressure in the rats was reduced.
as §1
One week after tumor implantation, the rats were again anesthetized and a polyethylene (PE-10) catheter was inserted retrograde through the external carotid artery to the common carotid artery bifurcation ipsilateral to the tumor. The external carotid artery was then ligated. […] Body temperature was maintained at 37° C. and arterial blood gases, blood pressure, and hematocrit were monitored. […]
RMP-7 infused at a rate greater than 1.0 μg/kg/min (dissolved in phosphate buffer, pH 7.4) reduced systemic blood pressure in rats when given either intravenously or into the carotid artery. […] Physiological parameters, which included arterial blood pH, PaO2, were also monitored.

Data set [4] relates to RG-2 glioma. Briefly: Microscopic analysis with intravenously injected horseradish peroxidase (HRP). The data set is classed as in vivo, Wistar rats. On the procedure:
Microscopic analysis was performed using intravenously injected horseradish peroxidase (HRP) as described in (22). After rat preparation as previously described, bradykinin (10 μg/kg/min in saline) or saline as a control was injected into the fight carotid artery for 15 minutes. Five minutes after the start of the intracarotid infusion, 20 mg/100 g of horseradish peroxidase (HRP) was injected by an intravenous bolus. Ten minutes after the HRP injection, rats were perfused with a mixture of 2% glutaraldehyde and 2% formaldehyde in 0.1 sodium phosphate buffer solution at pH 7.4 through the heart. After fixation, the brains were removed and cut at 40 μm thickness on a vibratome. The sections were preincubated for 15 minutes at room temperature in the medium consisting of 10 ml 0.05 M-Tris-HCl buffer (pH 7.4), 3,3'-diaminobenzidine tetrahydrochloride and 0.02% hydrogen peroxide (Sigma). The sections were trimmed down to the areas of interests, post-fixed for 2 hours in 2% osmium tetroxide with 0.1M sodium phosphate, dehydrated, and embedded in plastic. Plastic sections 1 μm thick were observed under light microscopy.

Data set [5] deals with RG-2 glioma. Briefly: Evans blue (EB-albumin) staining of tumor and brain after intracarotid infusion. It counts as in vivo, Wistar rats. Particulars: intracarotid bradykinin infusion; 2 ml/kg of 2% EB i.v. Here is the method: After the intracarotid bradykinin infusion, the rat was perfused with 200 ml of phosphate buffer through the heart to wash out the remaining EB from the vessels. The brains were removed immediately and cut as coronal sections.
Since EB binds to serum albumin (MW 67,000) in blood and distributes with albumin in vivo, EB staining in the tissue indicates the distribution of albumin (4). In order to observe the extravasated EB and not the EB remaining in the vessels in the brain, the blood from the brain was washed out by perfusing the rats with phosphate buffer from the heart.
Six rats were used to examine whether RMP-7 could selectively deliver albumin to tumors. Evans blue (EB) was injected intravenously instead of radiolabeled tracers. After the preparation of rats, 2 ml/kg of 2% EB was injected intravenously instead of radiolabeled tracers. After the intracarotid RMP-7 (n=3) or vehicle (n=3) infusion, the rat was perfused with 200 ml of phosphate buffer through the heart to wash out the remaining EB from the vessels. The brains were removed immediately and cut as coronal sections.

For data set [6], the system named is brain capillary endothelial cells. Particulars: nanomolar concentrations of bradykinin; cited from earlier work.
For data set [7] the following is noted: rat, in vivo; cited from earlier work.
The subject of a further data set is normal brain capillary. The note with it: in vivo; cited from earlier work.
The mark [8] stands for this setting: tumor, intracarotid bradykinin 10 μg/kg/min vs saline.

For the compound `CCCCC/C=C\C\C=C/C=C/C=C/[C@@H](SC[C@H](NC(=O)CC[C@H](N)C(=O)O)C(=O)NCC(=O)O)[C@@H](O)CCCC(=O)O` [LTC4, leukotriene C4], the “Effect on capillary permeability” value in the data set on brain tumor capillaries was “selectively increases the permeability in brain tumor capillaries without affecting the permeability in normal brain capillaries”.
Regarding `NC(N)=NCCC[C@H](NC(=O)[C@H](Cc1ccccc1)NC(=O)[C@@H]1CCCN1C(=O)[C@H](CO)NC(=O)[C@H](Cc1ccccc1)NC(=O)CNC(=O)[C@@H]1CCCN1C(=O)[C@@H]1CCCN1C(=O)[C@@H](N)CCCN=C(N)N)C(=O)O` [bradykinin] (H-RPPGFSPFR-OH), in the data set on RG-2 glioma [1] (BST, 2 mm from tumor border, intracarotid bradykinin 10 μg/kg/min), the “Ki value of the brain surrounding tumor (BST) for [14C] AIB” value is 3.50 ± 1.29 µL/g/min. Also, the “Ki values of brain regions without tumor, treated vs control” value with RG-2 glioma [1] (normal brain regions, intracarotid bradykinin 10 μg/kg/min) is recorded as “no significant differences”. In addition, the “Ki value of the tumors for [14C] AIB (MW 103)” value in the data set on RG-2 glioma [1] (tumor, intracarotid bradykinin 10 μg/kg/min for 15 min) came out at 25.91 ± 6.78 µL/g/min. Moreover, the “Ki value of the tumors for [14C] dextran (MW 70,000)” value in the data set with RG-2 glioma [1] (tumor, intracarotid bradykinin 10 μg/kg/min for 15 min, mean±SD) stood at 17.84 ± 1.00 µL/g/min. Moreover, in the data set on RG-2 glioma [1] (setting [8]), the “Ki of tumors for [14C] AIB, fold higher than control group” value was determined as 1.8 fold and the “Ki of tumors for [14C] dextran, fold higher than control group” value is 12 fold. Further, the “Brain and tumor blood volumes, change by infusion” value in the data set with RG-2 glioma [2] is reported as “not altered”. In [3], the “Effect on systemic blood pressure” value is given as “did not alter systemic blood pressure” and the “Infusion rate at which systemic blood pressure was reduced” value was “greater than 20 μg/kg/min”. Moreover, in the data set with RG-2 glioma [4] (normal brain, bradykinin 10 μg/kg/min intracarotid), the “HRP extravasation in normal brain” value is listed as “no extravasation of HRP between cells”. For the same compound, in the data set with RG-2 glioma [4] (tumor, bradykinin 10 μg/kg/min intracarotid 15 min), the “HRP stain in tumor” value is given as “well recognized in the extracellular space between tumor cells”. Moreover, the Evans blue staining result in the data set with RG-2 glioma [5] was “well recognized in the tumor but not in the normal brain”. Also, the “Stimulation of uptake of Lucifer yellow” value in [6] is 40%. For the same compound, the “Degradation of bradykinin in rats, time” value in data set [7] was “several hours”. For the same compound, in the data set on normal brain capillary, the “HRP around normal brain capillary at high dose” value is “caused intravasation of HRP around the normal brain capillary”.
As to `C[C@H](CS)C(=O)N1CCC[C@H]1C(=O)O` [captopril], the “Systemic pressure when intravenous captopril infusion was used to enhance bradykinin effect” value in [3] (iv) was “hypotension occurred”.
